Experimental findings from the NIST ThermoML archive (doi:10.1016/j.jct.2013.10.038) are described below.

A short description of this data set: activity coefficient (dimensionless); of the first substance listed, at infinite dilution; xn = mol fraction of the nth substance listed. The settings on record: 101 kPa, Liquid, Chromatography, x1 = 0.

Numbers after ± are expanded uncertainties.

Regarding `CCc1ccccc1` [ethylbenzene] + CCCCCCn1cc[n+](C)c1.O=C([O-])C(F)(F)F, the activity coefficient came to 4.1 ± 0.43 (303.15 K); 4.16 ± 0.44 (313.15 K); 4.22 ± 0.44 (323.15 K); 4.25 ± 0.45 (333.15 K); 4.32 ± 0.45 (343.15 K); 4.34 ± 0.46 (353.15 K). Moreover, the activity coefficient (363.15 K) amounted to 4.36 ± 0.46.
`CC(C)CC(C)(C)C` [2,2,4-trimethylpentane] + CCCCCCn1cc[n+](C)c1.O=C([O-])C(F)(F)F: the activity coefficient (323.15 K) worked out at 46.8 ± 4.9.
For the compound `Cc1ccccc1` [toluene] + CCCCCCn1cc[n+](C)c1.O=C([O-])C(F)(F)F, the activity coefficient runs as follows: (303.15 K) 2.97 ± 0.31; (313.15 K) 3.02 ± 0.32; (323.15 K) 3.06 ± 0.32; (333.15 K) 3.1 ± 0.33; (343.15 K) 3.14 ± 0.33; (353.15 K) 3.17 ± 0.33. Moreover, where the note is “363.15 K”, the activity coefficient was found to be 3.2 ± 0.34.
For the compound `Cc1cccc(C)c1` [1,3-dimethylbenzene] + CCCCCCn1cc[n+](C)c1.O=C([O-])C(F)(F)F, the activity coefficient by setting is: (303.15 K) 4.19 ± 0.44; (313.15 K) 4.25 ± 0.45; (323.15 K) 4.34 ± 0.46; (333.15 K) 4.39 ± 0.46; (343.15 K) 4.42 ± 0.46; (353.15 K) 4.53 ± 0.48. For the same compound, the activity coefficient (363.15 K) is 4.56 ± 0.48.
As to `ClCCl` [dichloromethane] + CCCCCCn1cc[n+](C)c1.O=C([O-])C(F)(F)F, the activity coefficient came to 0.64 ± 0.07 (303.15 K); 0.65 ± 0.07 (313.15 K); 0.67 ± 0.07 (323.15 K); 0.68 ± 0.07 (333.15 K); 0.7 ± 0.07 (343.15 K); 0.72 ± 0.08 (353.15 K). Further, the activity coefficient (363.15 K) was 0.73 ± 0.08.
For `C1COCCO1` [1,4-dioxane] + CCCCCCn1cc[n+](C)c1.O=C([O-])C(F)(F)F, the activity coefficient worked out at 1.91 ± 0.2 (303.15 K); 1.92 ± 0.2 (313.15 K); 1.93 ± 0.2 (323.15 K); 1.94 ± 0.2 (333.15 K); 1.95 ± 0.2 (343.15 K); 1.95 ± 0.2 (353.15 K). The activity coefficient (363.15 K) was 1.97 ± 0.21.
As for `CCCCCCCC` [octane] + CCCCCCn1cc[n+](C)c1.O=C([O-])C(F)(F)F, under “323.15 K”, the activity coefficient was 49.6 ± 5.2.
Regarding `Cc1ccccc1C` [1,2-dimethylbenzene] + CCCCCCn1cc[n+](C)c1.O=C([O-])C(F)(F)F, the activity coefficient is, setting by setting: (303.15 K) 3.54 ± 0.37; (313.15 K) 3.67 ± 0.39; (323.15 K) 3.83 ± 0.4; (333.15 K) 3.98 ± 0.42; (343.15 K) 4.1 ± 0.43; (353.15 K) 4.13 ± 0.43. Further, where the note is “363.15 K”, the activity coefficient is 4.53 ± 0.48.
As for `Cc1ccc(C)cc1` [1,4-dimethylbenzene] + CCCCCCn1cc[n+](C)c1.O=C([O-])C(F)(F)F, the activity coefficient is 4.12 ± 0.43 (303.15 K); 4.18 ± 0.44 (313.15 K); 4.24 ± 0.45 (323.15 K); 4.29 ± 0.45 (333.15 K); 4.32 ± 0.45 (343.15 K); 4.42 ± 0.46 (353.15 K). Moreover, under “363.15 K”, the activity coefficient stood at 4.43 ± 0.47.
As for `CC#N` [acetonitrile] + CCCCCCn1cc[n+](C)c1.O=C([O-])C(F)(F)F, the activity coefficient worked out at 1.01 ± 0.1 (303.15 K); 1.05 ± 0.11 (313.15 K); 1.11 ± 0.11 (323.15 K); 1.16 ± 0.12 (333.15 K); 1.22 ± 0.13 (343.15 K); 1.28 ± 0.13 (353.15 K). Also, the activity coefficient (363.15 K) turned out to be 1.32 ± 0.14.
With `CCCCCCCCC` [nonane] + CCCCCCn1cc[n+](C)c1.O=C([O-])C(F)(F)F, for the setting “323.15 K”, the activity coefficient worked out at 64.2 ± 6.8.
With `C1CCOC1` [tetrahydrofuran] + CCCCCCn1cc[n+](C)c1.O=C([O-])C(F)(F)F, the activity coefficient was found to be 1.95 ± 0.2 (303.15 K); 1.96 ± 0.21 (313.15 K); 1.98 ± 0.21 (323.15 K); 2 ± 0.21 (333.15 K); 2.02 ± 0.21 (343.15 K); 2.02 ± 0.21 (353.15 K). Further, the activity coefficient (363.15 K) was 2.05 ± 0.22.
